In ChEMBL document CHEMBL4706747, “Discovery of 5-Nitro-6-thiocyanatopyrimidines as Inhibitors of Cryptococcus neoformans and Cryptococcus gattii” (ACS Med Chem Lett, 2021):
Several values for one entry are separate records, joined by “and”; a condition that tells them apart may be missing. Equal values may be shown once.

Experiments:
[1] = tested on: Cryptococcus neoformans; assay: Antifungal activity against Cryptococcus neoformans KN99alpha assessed as fungal growth inhibition after 48 hrs by limiting dilution method; format: functional
[2] = Cytotoxicity against human HepDE19 cells incubated for 72 hrs by MTS assay; format: cell-based
[3] = tested on: Cryptococcus neoformans; assay: Antifungal activity against fluconazole-resistant Cryptococcus neoformans DUMC-158.03 assessed as fungal growth inhibition after 48 hrs by limiting dilution method; format: functional
[4] = Antifungal activity against Cryptococcus gattii RSA-3615 assessed as fungal growth inhibition after 48 hrs by limiting dilution method; format: functional, Cryptococcus gattii VGI

Row | Compound | MIC80 [1] | CC50 at 72 h [2] | MIC80 [3] | MIC80 [4]
1 | CC(C)C(C)Nc1ncnc(SC#N)c1[N+](=O)[O-] (stereo not drawn) | 3 µM and 0.8 µg/mL | – | – | –
2 | N#CSc1ncnc(NCc2ccccc2)c1[N+](=O)[O-] | 2.34 µM and 0.66 µg/mL | 19.6 µM and 5.63 µg/mL | 1.17 µM and 0.33 µg/mL | 1.17 µM and 0.33 µg/mL
3 | N#CSc1ncnc(N2CCCCC2)c1[N+](=O)[O-] | 2.34 µM and 0.61 µg/mL | 11.9 µM and 3.16 µg/mL | 4.68 µM and 1.24 µg/mL | 1.17 µM and 0.3 µg/mL
4 | CC(C)Nc1nc(-c2ccccc2)nc(SC#N)c1[N+](=O)[O-] | 50 µM and 15.8 µg/mL | – | – | –
5 | CSc1nc(NCCc2ccccc2)c([N+](=O)[O-])c(SC#N)n1 | 9.37 µM and 3.25 µg/mL | 15.4 µM and 5.35 µg/mL | – | 1.17 µM and 0.4 µg/mL
6 | Cc1nc(NC2CCCC2)c([N+](=O)[O-])c(SC#N)n1 | 9 µM and 2.51 µg/mL | – | – | 2.34 µM and 0.65 µg/mL
7 | Cc1nc(NCCc2ccccc2)c([N+](=O)[O-])c(SC#N)n1 | 50 µM and 15.8 µg/mL | 12.3 µM and 3.87 µg/mL | – | 2.34 µM and 0.73 µg/mL
8 | COc1ncnc(SC#N)c1[N+](=O)[O-] | 9.37 µM and 1.98 µg/mL | – | – | > 25 µM and > 5.3 µg/mL
9 | CC(C)Nc1ncnc(SC#N)c1[N+](=O)[O-] | 2.34 µM and 0.55 µg/mL | 12 µM and 2.87 µg/mL | 2.34 µM and 0.55 µg/mL | 0.58 µM and 0.13 µg/mL
10 | CNc1nc(/C=C/c2ccccc2)nc(SC#N)c1[N+](=O)[O-] | > 50 µM and > 15.7 µg/mL | – | – | > 25 µM and > 7.83 µg/mL
11 | N#CSc1ncnc(N2CCCCCCC2)c1[N+](=O)[O-] | 4.68 µM and 1.37 µg/mL | – | – | 2.34 µM and 0.68 µg/mL
12 | Cc1nc(NC2CCCCC2)c([N+](=O)[O-])c(SC#N)n1 | > 50 µM and > 24.6 µg/mL | – | – | > 25 µM and > 12.3 µg/mL
13 | Cc1nc(SC#N)c([N+](=O)[O-])c(N2CCCCCC2)n1 | 18.8 µM and 5.49 µg/mL | – | – | 4.68 µM and 1.37 µg/mL
14 | Cc1nc(SC#N)c([N+](=O)[O-])c(N2CCCC2)n1 | 4.68 µM and 1.23 µg/mL | – | – | 1.17 µM and 0.3 µg/mL
15 | CC1CCCC(C)N1c1ncnc(SC#N)c1[N+](=O)[O-] (stereo not drawn) | 9.37 µM and 2.74 µg/mL | – | – | 15.6 µM and 4.58 µg/mL
16 | Cc1nc(OC(C)C)c([N+](=O)[O-])c(SC#N)n1 | 1 µM and 0.25 µg/mL | 14.6 µM and 3.71 µg/mL | 1.17 µM and 0.29 µg/mL | 1.17 µM and 0.29 µg/mL
17 | N#CSc1ncnc(N)c1[N+](=O)[O-] | 4.68 µM and 0.92 µg/mL | – | – | 1.17 µM and 0.22 µg/mL
18 | Cc1nc(SC#N)c([N+](=O)[O-])c(N2CCCCCCC2)n1 | 18.8 µM and 5.76 µg/mL | – | – | 2.34 µM and 0.71 µg/mL
19 | CN(C)c1ncnc(SC#N)c1[N+](=O)[O-] | 4.68 µM and 1.05 µg/mL | – | – | 1.17 µM and 0.26 µg/mL
20 | CCN(c1ncnc(SC#N)c1[N+](=O)[O-])C(C)C | 4.55 µM and 1.4 µg/mL | 10.7 µM and 2.86 µg/mL | – | 1.17 µM and 0.3 µg/mL
21 | Cc1nc(SC#N)c([N+](=O)[O-])c(N2CCCCC2C)n1 (stereo not drawn) | 18.8 µM and 5.49 µg/mL | – | – | 0.58 µM and 0.16 µg/mL
22 | CSc1nc(NCc2ccc(C)cc2)c([N+](=O)[O-])c(SC#N)n1 | 9.37 µM and 3.25 µg/mL | 19.2 µM and 6.67 µg/mL | – | 4.68 µM and 1.62 µg/mL
23 | Cc1nc(NCc2ccccc2)c([N+](=O)[O-])c(SC#N)n1 | 50 µM and 15.1 µg/mL | 15.9 µM and 4.78 µg/mL | – | 18.8 µM and 5.64 µg/mL
24 | CN(Cc1ccccc1)c1ncnc(SC#N)c1[N+](=O)[O-] | 2.34 µM and 0.7 µg/mL | 18.8 µM and 5.66 µg/mL | – | 1.17 µM and 0.35 µg/mL

Row | Compound | MIC80 [1] | CC50 at 72 h [2] | MIC80 [3] | MIC80 [4]
25 | CC(C)Oc1ncnc(SC#N)c1[N+](=O)[O-] | 1.9 µM and 0.45 µg/mL | 23.3 µM and 5.6 µg/mL | – | 1.17 µM and 0.27 µg/mL
26 | CCCOc1ncnc(SC#N)c1[N+](=O)[O-] | 3.9 µM and 0.93 µg/mL | 31.8 µM and 7.64 µg/mL | – | 4.68 µM and 1.12 µg/mL
27 | N#CSc1ncnc(N2CCCCCC2)c1[N+](=O)[O-] | 2.34 µM and 0.65 µg/mL | 17.7 µM and 4.94 µg/mL | 2.34 µM and 0.65 µg/mL | 2.34 µM and 0.65 µg/mL
28 | N#CSc1ncnc(NCCc2ccccc2)c1[N+](=O)[O-] | 3.51 µM and 1.05 µg/mL | 15.1 µM and 4.55 µg/mL | – | 2.34 µM and 0.7 µg/mL
29 | CC1CCCCN1c1ncnc(SC#N)c1[N+](=O)[O-] (stereo not drawn) | 9.37 µM and 2.61 µg/mL | – | – | 1.17 µM and 0.32 µg/mL
30 | CC1CC(C)CN(c2ncnc(SC#N)c2[N+](=O)[O-])C1 (stereo not drawn) | 2.34 µM and 0.68 µg/mL | 33.6 µM and 9.86 µg/mL | – | 9.37 µM and 2.74 µg/mL
31 | CSc1nc(NCc2ccccc2)c([N+](=O)[O-])c(SC#N)n1 | 4.68 µM and 1.56 µg/mL | 18.6 µM and 6.2 µg/mL | – | 4.68 µM and 1.56 µg/mL
32 | Cc1nc(SC#N)c([N+](=O)[O-])c(N2CC(C)CC(C)C2)n1 (stereo not drawn) | 18.8 µM and 5.76 µg/mL | – | – | 9.37 µM and 2.88 µg/mL
33 | CCOc1nc(C)nc(SC#N)c1[N+](=O)[O-] | 1.17 µM and 0.27 µg/mL | 19.8 µM and 4.76 µg/mL | 2.34 µM and 0.56 µg/mL | 0.29 µM and 0.06 µg/mL
34 | N#CSc1ncnc(NCc2cccc(C(F)(F)F)c2)c1[N+](=O)[O-] | 9.37 µM and 3.32 µg/mL | 25.9 µM and 9.21 µg/mL | – | 4.68 µM and 1.66 µg/mL
35 | CN(c1ncnc(SC#N)c1[N+](=O)[O-])C1CCCCC1 | 6 µM and 1.76 µg/mL | 25.3 µM and 7.42 µg/mL | – | 4.68 µM and 1.37 µg/mL
36 | CNc1nc(C)nc(SC#N)c1[N+](=O)[O-] | 2.34 µM and 0.52 µg/mL | > 100 µM and > 22.5 µg/mL | 2.34 µM and 0.52 µg/mL | 1.17 µM and 0.26 µg/mL
37 | N#CSc1ncnc(NC2CCCC2)c1[N+](=O)[O-] | 4.9 µM and 1.29 µg/mL | – | 2.34 µM and 0.62 µg/mL | 1.17 µM and 0.3 µg/mL
38 | N#CSc1ncnc(NC2CCCCC2)c1[N+](=O)[O-] | 6 µM and 1.67 µg/mL | – | – | 1.17 µM and 0.32 µg/mL
39 | Cc1nc(N)c([N+](=O)[O-])c(SC#N)n1 | 2.34 µM and 0.48 µg/mL | 24.5 µM and 5.17 µg/mL | 2.34 µM and 0.49 µg/mL | 0.58 µM and 0.12 µg/mL
40 | CC(C)N(Cc1ccccc1)c1ncnc(SC#N)c1[N+](=O)[O-] | > 50 µM and > 16.5 µg/mL | – | – | > 25 µM and > 8.23 µg/mL
41 | CCN(CC)c1nc(C)nc(SC#N)c1[N+](=O)[O-] | 9.37 µM and 2.5 µg/mL | – | – | 2.34 µM and 0.62 µg/mL
42 | Cc1nc(SC#N)c([N+](=O)[O-])c(N(C)C)n1 | 4.68 µM and 1.11 µg/mL | – | – | 2.34 µM and 0.55 µg/mL
43 | CCC(CC)Nc1ncnc(SC#N)c1[N+](=O)[O-] | 18.5 µM and 4.94 µg/mL | – | – | > 25 µM and > 6.68 µg/mL
44 | CCN(CC)c1ncnc(SC#N)c1[N+](=O)[O-] | 9.37 µM and 2.37 µg/mL | – | – | 0.14 µM and 0.03 µg/mL
45 | CCCOc1nc(C)nc(SC#N)c1[N+](=O)[O-] | 0.6 µM and 0.15 µg/mL | 15.8 µM and 4.02 µg/mL | 1.17 µM and 0.29 µg/mL | 1.17 µM and 0.29 µg/mL
46 | CCC(CC)Nc1nc(C)nc(SC#N)c1[N+](=O)[O-] | 9 µM and 2.53 µg/mL | – | – | 9.37 µM and 2.63 µg/mL
47 | N#CSc1ncnc(NCc2ccc(Cl)cc2)c1[N+](=O)[O-] | 5.85 µM and 1.88 µg/mL | 22.5 µM and 7.25 µg/mL | – | 1.17 µM and 0.37 µg/mL
48 | Cc1ccc(CNc2nc(C)nc(SC#N)c2[N+](=O)[O-])cc1 | 50 µM and 15.8 µg/mL | 14.7 µM and 4.65 µg/mL | – | 1.17 µM and 0.36 µg/mL
